In PubChem BioAssay AID256 (DTP/NCI, 2004):
Values joined by “and” are separate entries in the source; they are usually repeats but may differ in a detail not shown here. Equal entries are not always repeated. Toxic doses and inconclusive results are not listed. The calls were made as follows: active = survival T/C of 150% or more; inactive = T/C below 125% in these data.

Tested on: CD2F1 mice, L1210 leukemia ip, survival T/C
Experiment: NCI In Vivo Anticancer Drug Screen. Data for tumor model L1210 Leukemia (intraperitoneal) in CD2F1 (CDF1) mice
Settings: endpoint: mean survival time, higher = longer survival
In short: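 In this screen, transplantable tumors were grown in mice given either the compound or its vehicle. Results were expressed as the treated measurement relative to the control measurement.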

[1] = dose: 100.0 mg/kg/injection, schedule: Q01DX001 (ip), vehicle: saline
[2] = dose: 200.0 mg/kg/injection, schedule: Q01DX001 (ip), vehicle: saline
[3] = dose: 400.0 mg/kg/injection, schedule: Q01DX001 (ip), vehicle: saline
[4] = dose: 25.0 mg/kg/injection, schedule: Q01DX009 (ip), vehicle: Klucel (hydroxypropylcellulose) (HPC)
[5] = dose: 50.0 mg/kg/injection, schedule: Q01DX009 (ip), vehicle: Klucel (hydroxypropylcellulose) (HPC)
[6] = dose: 100.0 mg/kg/injection, schedule: Q01DX009 (ip), vehicle: saline with Tween-80
[7] = dose: 200.0 mg/kg/injection, schedule: Q01DX009 (ip), vehicle: saline with Tween-80
[8] = dose: 100.0 mg/kg/injection, schedule: Q01DX001 (ip), vehicle: saline with Tween-80

Measured: T/C

CCCC(C)C1=NC(C)(C)CCO1 (configuration not stated)
inactive: dose: 12.5 mg/kg/injection, schedule: Q04DX002 (ip), vehicle: saline 96 % of control | dose: 25.0 mg/kg/injection, schedule: Q04DX002 (ip), vehicle: saline 101 % of control | dose: 50.0 mg/kg/injection, schedule: Q04DX002 (ip), vehicle: saline 93 % of control

CC1=CCC(O)(C(C)C)CC1 (configuration not stated)
inactive: dose: 100.0 mg/kg/injection, schedule: Q04DX003 (ip), vehicle: saline 96 % of control | dose: 200.0 mg/kg/injection, schedule: Q04DX003 (ip), vehicle: saline 98 % of control | dose: 400.0 mg/kg/injection, schedule: Q04DX003 (ip), vehicle: saline 102 % of control

N#CCC(=O)NN=C1CCCCC1
inactive: [1] 102 % of control | [2] 123 % of control | [3] 107 % of control

COC1=CC=C2C3Cc4ccc(OC)c(O)c4C2(C1)CN3C (configuration not stated)
inactive: [4] 102 % of control | [5] 104 % of control | dose: 100.0 mg/kg/injection, schedule: Q01DX009 (ip), vehicle: Klucel (hydroxypropylcellulose) (HPC) 103 % of control

NC(CSC1(c2ccc(Cl)cc2)c2ccccc2-c2ccccc21)C(=O)O (configuration not stated)
inactive: dose: 25.0 mg/kg/injection, schedule: Q01DX009 (ip), vehicle: saline 100 % of control | dose: 50.0 mg/kg/injection, schedule: Q01DX009 (ip), vehicle: saline 96 % of control | dose: 100.0 mg/kg/injection, schedule: Q01DX009 (ip), vehicle: saline 96 % of control

Cc1cc(N(CCOS(C)(=O)=O)CCOS(C)(=O)=O)ccc1C=Nc1ccc(C(=O)O)c(O)c1
inactive: dose: 4.0 mg/kg/injection, schedule: Q01DX009 (ip), vehicle: saline with Tween-80 118 % of control | dose: 6.0 mg/kg/injection, schedule: Q01DX009 (ip), vehicle: saline with Tween-80 111 % of control | dose: 12.5 mg/kg/injection, schedule: Q01DX009 (ip), vehicle: saline with Tween-80 123 % of control

CCCCCCCCOC(=O)Nc1ccc(S(=O)(=O)N(CCC)CCC)cc1
inactive: [1] 96 % of control | [2] 92 % of control | [3] 88 % of control

C=C(C)/C([O-])=N/[N+](C)(C)CC(O)CCCCCCCCCCCC (configuration not stated)
inactive: dose: 25.0 mg/kg/injection, schedule: Q01DX001 (ip), vehicle: saline 96 % of control and 97 % of control | dose: 50.0 mg/kg/injection, schedule: Q01DX001 (ip), vehicle: saline 97 % of control and 100 % of control | dose: 50.0 mg/kg/injection, schedule: Q01DX009 (ip), vehicle: saline with Tween-80 94 % of control | [1] 96 % of control and 97 % of control | [6] 94 % of control | [2] 93 % of control and 100 % of control | [7] 97 % of control

C1=C(c2ccccc2)NN=C(c2ccccc2)C1c1ccccc1 (configuration not stated)
inactive: dose: 1.56 mg/kg/injection, schedule: Q01DX001 (ip), vehicle: saline with Tween-80 103 % of control | dose: 1.56 mg/kg/injection, schedule: Q01DX009 (ip), vehicle: saline with Tween-80 98 % of control | dose: 3.13 mg/kg/injection, schedule: Q01DX001 (ip), vehicle: saline with Tween-80 101 % of control | dose: 3.13 mg/kg/injection, schedule: Q01DX009 (ip), vehicle: saline with Tween-80 102 % of control | dose: 6.25 mg/kg/injection, schedule: Q01DX001 (ip), vehicle: saline with Tween-80 94 % of control | dose: 6.25 mg/kg/injection, schedule: Q01DX009 (ip), vehicle: saline with Tween-80 98 % of control | dose: 50.0 mg/kg/injection, schedule: Q01DX001 (ip), vehicle: saline with Tween-80 87 % of control

[O-]/[N+](=C\c1ccccc1)C1CCCCC1
inactive: [8] 94 % of control | dose: 200.0 mg/kg/injection, schedule: Q01DX001 (ip), vehicle: saline with Tween-80 95 % of control | dose: 400.0 mg/kg/injection, schedule: Q01DX001 (ip), vehicle: saline with Tween-80 95 % of control

CCCCCC(C[N+](C)(C)C)C(=O)/C=C/c1ccc(Cl)cc1 (configuration not stated)
inactive: dose: 12.0 mg/kg/injection, schedule: Q01DX009 (ip), vehicle: Klucel (hydroxypropylcellulose) (HPC) 96 % of control | [4] 96 % of control | [5] 96 % of control

O=C(CC1(Cl)C(F)(F)C(F)(F)C1(F)F)c1ccccc1
inactive: [8] 95 % of control

Cc1cc(C)c(B(c2c(C)cc(C)cc2C)c2c(C)cc(C)cc2C)c(C)c1
inactive: [6] 100 % of control | [7] 94 % of control | dose: 200.0 mg/kg/injection, schedule: Q04DX003 (ip), vehicle: saline with Tween-80 90 % of control | dose: 400.0 mg/kg/injection, schedule: Q01DX009 (ip), vehicle: saline with Tween-80 94 % of control | dose: 400.0 mg/kg/injection, schedule: Q04DX003 (ip), vehicle: saline with Tween-80 96 % of control
